# In PMC11996864, “A small-molecule inhibitor of BCL10-MALT1 interaction abrogates progression of diffuse large B cell lymphoma” (The Journal of Clinical Investigation, 2025):
# “And” between values parts separate entries of the source, which are not always exact repeats. Equal entries are not always repeated. “Also recorded” adds a separate entry of the source.
# Tests used:
# full-length MALT1 = target: T1, full-length MALT1 (Homo sapiens, UniProt Q9UDY8); assay: SPR binding of M1i-124 to immobilized full-length MALT1; settings: steady-state affinity model; read-out: equilibrium dissociation constant (KD)
# T1 construct: full-length GST-tagged MALT1 (Novus, catalog H00010892-P01) protein; purchased Novus H00010892-P01
# T1 sequence (Q9UDY8 1-813 isoform Q9UDY8-2): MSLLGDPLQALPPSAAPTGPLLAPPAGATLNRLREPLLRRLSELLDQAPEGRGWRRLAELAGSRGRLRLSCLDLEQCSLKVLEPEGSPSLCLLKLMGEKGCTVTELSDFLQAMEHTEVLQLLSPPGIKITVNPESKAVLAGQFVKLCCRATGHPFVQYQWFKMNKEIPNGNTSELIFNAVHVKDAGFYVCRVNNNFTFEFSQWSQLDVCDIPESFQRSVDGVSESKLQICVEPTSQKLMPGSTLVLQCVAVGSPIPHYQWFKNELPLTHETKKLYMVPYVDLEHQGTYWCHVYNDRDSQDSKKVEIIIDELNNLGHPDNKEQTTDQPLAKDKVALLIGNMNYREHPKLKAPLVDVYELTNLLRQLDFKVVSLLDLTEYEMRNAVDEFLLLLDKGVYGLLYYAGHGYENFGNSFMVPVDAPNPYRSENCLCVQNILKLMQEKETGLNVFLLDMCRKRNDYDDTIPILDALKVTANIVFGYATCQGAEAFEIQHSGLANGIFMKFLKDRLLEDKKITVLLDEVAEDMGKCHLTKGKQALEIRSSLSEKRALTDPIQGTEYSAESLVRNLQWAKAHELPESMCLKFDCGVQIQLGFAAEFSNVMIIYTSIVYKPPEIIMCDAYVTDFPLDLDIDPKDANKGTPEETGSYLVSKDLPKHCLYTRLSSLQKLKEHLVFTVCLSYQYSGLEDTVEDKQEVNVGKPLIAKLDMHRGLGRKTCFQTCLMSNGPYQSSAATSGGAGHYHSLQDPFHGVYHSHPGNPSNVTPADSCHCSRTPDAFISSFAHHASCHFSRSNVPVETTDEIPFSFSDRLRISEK
# Method: Surface plasmon resonance (SPR) experiments were performed on a Biacore 2000 system (Cytiva). Full-length GST-BCL10 (Abnova, catalog H00008915-P01) was immobilized onto a gold sensor chip surface, and analyte solution containing MALT1(DD+Ig1-2), MALT1(DD), or MALT1(Ig1-2) purified protein was injected over the surface through a series of flow cells (see Supplemental Methods for details on protein purification). The binding kinetic parameters were obtained using the Langmuir model for global fitting with 1:1 binding ratio where one ligand molecule interacts with one analyte molecule. The equilibrium dissociation constant (KD) of M1i-124 to full-length GST-tagged MALT1 (Novus, catalog H00010892-P01) protein was determined by Creative Biolabs using Biacore T200. Full-length MALT1 protein was immobilized onto CM5 sensor chip surface, and M1i-124 was injected at concentrations of 0, 12.5, 25, 50, 100, and 200 μM. The steady-state affinity model was used to determine the KD.
# TMD8 cells [1] = assay: Apoptosis, annexin V/SYTOX Blue flow cytometry; assay type: cell-based, human
# Method: Cell proliferation, viability, and apoptosis assays. […]
# The percentages of cells in early and late apoptosis were combined for
# quantification. For CellTrace Violet, CellTiter-glo, and Annexin V apoptosis assays, cell were
# cultured in media with 50% of the usual serum. […]
# [2] = test system: ERK1/2 phosphorylation in Jurkat T cells; assay: ERK phosphorylation after CD3/CD28 stimulation (MALT1-independent control); assay type: cell-based, human; settings: for ERK phosphorylation: result in words; for pERK 1/2 (normalized): Jurkat, 1 μM;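 on pERK 1/2 (normalized): Phosphorylated ERK1/2 relative to total ERK1/2 protein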
# Method: Western blot analysis of RelB and N4BP1 cleavage was used to test the effect of small molecules on MALT1 protease activity. To this end, 3 million Jurkat T cells were pretreated with compounds for 24 hours in serum-free media, and then 5 μM MG-132 was added for 1 hour before stimulation with CD3/CD28 (Stemcell Technologies, catalog 10971), and lysed in RIPA buffer (Millipore, catalog 20-188) with protease and phosphatase inhibitor cocktail (Pierce, catalog 78446). IKKα/β phosphorylation and IκBα phosphorylation were used as measures of MALT1 scaffolding activity, while ERK1/2 phosphorylation was used as a control. […] For experiments evaluating RelB cleavage and phosphorylation of IκBα in TMD8 cells, cells were treated with compounds for 24 hours in media containing 5% FBS. For RelB Western blot analysis, 5 μM MG-132 (Cell Signaling Technology, catalog 2194s) was added 4 hours before lysis in RIPA lysis buffer with protease/phosphatase inhibitors.
# C57BL/6 mice = assay: Long-term (28 days) in vivo toxicity; design: species or system mouse
# Method: Long-term in vivo toxicity experiments. WT C57/BL6 (The Jackson Laboratory) male and female mice were treated daily with 50 mg/kg M1i-124 or vehicle control for 28 days. At the time of sacrifice, blood was obtained for complete blood count, alanine transaminase, albumin, and total bilirubin (Abaxis). Livers from control and M1i-124 treated mice were collected for H&E analysis. […]
# OCI-Ly3 cells = assay: cells; design: species or system TMD8 or OCI-Ly3; Inhibition of spontaneous IL-6 secretion from ABC-DLBCL cells, human IL-6 ELISA of supernatants; settings: Homo sapiens, OCI-Ly3, 20 h; IL-6 secretion; read-out: IC50 (µM) IL-6 inhibition
# Method: (§1) Cytokine ELISAs. Cytokines in cell culture supernatants were measured 20-24h after treatment with 0, 0.01, 0.03, 0.1, 0.3, 1, or 3 µM of compounds using the following ELISA kits according to the manufacturer’s instructions: Human IL-2 ELISA (BioLegend Cat# 431804), Human IL-6 ELISA (BioLegend Cat# 430504), and Human IL-10 ELISA (BioLegend Cat# 430604). TMD8 and OCI-Ly3 cells were treated with specific doses of compounds in serum-free media for 20 hours. Jurkat T cells were pretreated with specific doses of compounds for 8 hours in serum-free media, then stimulated with PMA/ionomycin for 16 hours prior to the collection of supernatants. Mouse splenocytes were isolated from spleens of C57/BL6 mice by passing spleens through a 70 micron filter followed by red blood cell lysis using ACK lysing buffer (Quality Biologics, Cat# 118-156-101). […] Supernatant was collected at 24 hours and mouse IL-2 levels were analyzed via ELISA (R&D Systems, Cat# DY402-05). IL-6 and IL-10 are NF-κB–induced cytokines that promote the proliferation and survival of malignant B cells through both autocrine and paracrine mechanisms ([44]), and are negative prognostic factors in ABC-DLBCL ([45], [46]). ABC-DLBCL cell lines spontaneously secrete substantial levels of IL-6 and IL-10, whereas GCB-DLBCL cell lines express only a negligible amount of these cytokines ([24]). […] The IC50 for inhibition of cytokine secretion by each compound in each cell line is reported in Supplemental Table 1.  Figure 4 M1i-124 and M1i-124d1 inhibit MALT1 protease and scaffolding functions, and MALT1-dependent cytokine secretion, in ABC-DLBCL cells. (A and B) Effect of 1 μM compound pretreatment on constitutive RelB cleavage (A) and IκB phosphorylation (B) within TMD8 cells. Representative Western blots are shown along with quantification (mean ± SEM; n = 2). (C) IL6 and IL10 mRNA levels in TMD8 cells treated with 1 μM M1i-124 or M1i-124d1 (mean ± SEM; n = 6). […] Statistical analyses were performed using 1-way ANOVA and Dunnett’s multiple-comparison test. **P < 0.01, ***P < 0.001, ****P < 0.0001.
# TMD8 cells [3] = assay: cells; design: species or system TMD8 or OCI-Ly3; Inhibition of spontaneous IL-6 secretion from ABC-DLBCL cells, human IL-6 ELISA of supernatants; settings: Homo sapiens, TMD8, 20 h; IL-6 secretion; read-out: IC50 (µM) IL-6 inhibition
# Method: as §1
# [4] = test system: MALT1 protein in DLBCL cells; design: method as in PMID 30024860, PMID 23238017; settings: result in words; cited from earlier work
# [5] = 28 days, vs control, result in words
smiles,measurement,setting,value
O=S(=O)(NCc1ccc2c(c1)OCO2)c1ccc(Cc2ccc(S(=O)(=O)NCc3ccc4c(c3)OCO4)cc2)cc1 [M1i-124],Kd,full-length MALT1,296000 nM
same,% Apoptotic cells,"TMD8 cells [1]; TMD8, 1 μM, 6 days",84.2% and 72.1% and 76.6% and 77.4% and 72.4% and 73.5%
same,Annexin (% positivity),"TMD8 cells [1]; TMD8, individual replicates",78.2% and 93.8% and 81.35%
same,apoptosis of TMD8 cells,TMD8 cells [1]; result in words,induced significant apoptosis; also recorded: selectively induced apoptosis
same,ERK phosphorylation,[2],unaffected
same,Albumin,"C57BL/6 mice; 28 days, result in words",decrease in albumin
same,alanine transaminase or total bilirubin,"C57BL/6 mice; 28 days, result in words",did not result in a change
same,liver histology (H&E),"C57BL/6 mice; 28 days, result in words",no appreciable difference
same,"blood counts (white blood cell count, hemoglobin, platelet count)",C57BL/6 mice; [5],did not result in a statistically significant change
same,change in weight,C57BL/6 mice; [5],did not result in a statistically significant change
same,% change in body weight,"C57BL/6 mice; C57BL/6 mice, 50 mg/kg daily, 28 days, 50 mg/kg",9.778% and 0% and 8.3% and 7.514% and 2.89% and 0.5714% and 7.273% and 4.7619%
same,ALT,C57BL/6 mice; individual mice,35 U/L and 100 U/L and 26 U/L and 120 U/L and 180 U/L and 125 U/L
same,Albumin,C57BL/6 mice; individual mice,3.5 g/dL and 2.5 g/dL and 2.1 g/dL and 1.9 g/dL and 3.2 g/dL
same,Hemoglobin,C57BL/6 mice; individual mice,13.2 g/dL and 10.9 g/dL and 13.7 g/dL and 12.6 g/dL and 14 g/dL and 12 g/dL and 10.3 g/dL and 11.3 g/dL and 12.9 g/dL
same,Platelets,C57BL/6 mice; individual mice,439 10^9/L and 412 10^9/L and 524 10^9/L and 394 10^9/L and 557 10^9/L and 522 10^9/L and 479 10^9/L and 381 10^9/L and 186 10^9/L
same,Total Bilirubin,C57BL/6 mice; individual mice,0.3 mg/dL and 0.4 mg/dL and 0.2 mg/dL
same,WBC,C57BL/6 mice; individual mice,8.15 10^9/L and 3.97 10^9/L and 4.01 10^9/L and 2.58 10^9/L and 5.28 10^9/L and 4.82 10^9/L and 3.12 10^9/L and 3.23 10^9/L and 1.49 10^9/L
same,in vivo tolerability,C57BL/6 mice; result in words,well tolerated with minimal toxicity
same,IC50,OCI-Ly3 cells,0.8 µM
same,IC50,TMD8 cells [3],1.3 µM
COc1ccc(CNS(=O)(=O)c2ccc(Cc3ccc(S(=O)(=O)NCc4ccc(OC)cc4)cc3)cc2)cc1 [M1i-124d1],pERK 1/2 (normalized),[2]; CD3/CD28 5 min,1.155 and 0.776 and 1.27 and 0.7498 and 0.998
same,pERK 1/2 (normalized),[2]; CD3/CD28 10 min,1.2674 and 0.9152 and 1.197 and 0.7135 and 0.9691
same,pERK 1/2 (normalized),[2]; CD3/CD28 15 min,1.05 and 0.8514 and 1.066 and 0.6774 and 0.9099
same,pERK 1/2 (normalized),[2]; CD3/CD28 20 min,0.8015 and 0.6878 and 0.9541 and 0.7317 and 0.9634
same,ERK phosphorylation,[2],unaffected
same,IC50,OCI-Ly3 cells,> 3 µM
same,IC50,TMD8 cells [3],0.8 µM
"CN1CCCC(CN2c3ccccc3Sc3ccccc32)C1 (stereo not shown) [Mepazine, mepazine, reference compound]",MALT1 protein level,[4],unaffected
